Experimental findings from ChEMBL document CHEMBL4130349, “Discovery and structure-activity relationship studies of 2-benzylidene-2,3-dihydro-1H-inden-1-one and benzofuran-3(2H)-one derivatives as a novel class of potential therapeutics for inflammatory bowel disease” (Eur J Med Chem, 2017) are described below.

Usually inhibition stands for how much of the control response was suppressed. The term IC50 denotes the midpoint of a concentration-inhibition curve.

The source made the active and inactive calls. The rule behind the calls is not given here.

Assay [1] concerns Rattus norvegicus. The assay can be described thus: Antiinflammatory activity in po dosed TNBS-induced Sprague-Dawley rat colitis model assessed as decrease in MPO levels in colon tissue administered once per day for 5 days measured on day 6. The format is functional, organism-based.
In assay [2] the test system is HT-29. The assay can be described thus: Inhibition of LPS-induced TNF-alpha expression in human HT-29 cells at 10 uM preincubated for 1 hr followed by TNF-alpha challenge measured after 3 hrs by Western blot method. In kind it is functional, cell-based. For orientation: Immunoblotting shows a protein as a band on a membrane.
The test system of assay [3] is HT-29. Description: Inhibition of TNF-alpha-induced MCP-1 expression in human HT-29 cells preincubated for 1 hr followed by TNF-alpha challenge measured after 3 hrs by Western blot analysis. The format is functional, cell-based.
In assay [4] the test system is HT-29. Description: Potency index, ratio of 5-ASA IC50 to test compound IC50 for inhibition of TNF-alpha-induced adhesion of BCECF-labeled human U937 cells to human HT-29 cells. In kind it is functional.
The test system of assay [5] is HT-29. Description: Inhibition of TNF-alpha-induced ROS production in human HT-29 cells preincubated for 1 hr followed by TNF-alpha challenge measured after 30 mins by DCF-DA dye-based fluorescence microscopy. In kind it is functional, cell-based.
Assay [6] has as its system HT-29. The assay can be described thus: Inhibition of TNF-alpha-induced NFkappa-B transcriptional activity in human HT-29 cells at 10 uM preincubated for 1 hr followed by TNF-alpha challenge measured after 3 hrs by dual luciferase reporter gene assay. The format is functional, cell-based.
The subject of assay [7] is HT-29. The assay can be described thus: Inhibition of TNF-alpha-induced adhesion of BCECF-labeled human U937 cells to human HT-29 cells preincubated for 1 hr followed by TNF-alpha challenge measured after 3 hrs by fluorescence microscopic method. The format is functional, cell-based.
The subject of assay [8] is HT-29. Description: Inhibition of LPS-induced TNF-alpha expression in human HT-29 cells preincubated for 1 hr followed by TNF-alpha challenge measured after 3 hrs by Western blot method. The format is functional, cell-based.
Assay [9] concerns Rattus norvegicus. The assay can be described thus: Antiinflammatory activity in po dosed TNBS-induced Sprague-Dawley rat colitis model assessed as recovery of colon tissue edematous inflammation administered once a day for 5 days measured on day 6. In kind it is functional, organism-based.
The test system of assay [10] is HT-29. Description: Inhibition of TNF-alpha-induced AP-1 transcriptional activity in human HT-29 cells at 10 uM preincubated for 1 hr followed by TNF-alpha challenge measured after 3 hrs by dual luciferase reporter gene assay. In kind it is functional, cell-based. In general terms: In a reporter assay the amount or activity of a reporter protein is the signal.
The test system of assay [11] is HT-29. The assay can be described thus: Inhibition of TNF-alpha-induced ICAM-1 expression in human HT-29 cells preincubated for 1 hr followed by TNF-alpha challenge measured after 3 hrs by Western blot analysis. The format is functional, cell-based.
The subject of assay [12] is Rattus norvegicus. The assay can be described thus: Antiinflammatory activity in po dosed TNBS-induced Sprague-Dawley rat colitis model assessed as recovery in body weight decrease administered once a day for 5 days measured on day 6. The format is functional, organism-based.
Assay [13] deals with HT-29. The assay can be described thus: Inhibition of TNF-alpha-induced adhesion of BCECF-labeled human U937 cells to human HT-29 cells at 10 uM preincubated for 1 hr followed by TNF-alpha challenge measured after 3 hrs by fluorescence microscopic method relative to control. The format is functional.

As to `O=C1/C(=C/c2ccc(O)cc2)Oc2cc(O)ccc21`, the inhibition entry with Rattus norvegicus [1], in the assay with HT-29 [3], with HT-29 [7], with HT-29 [8] and in the assay on HT-29 [11] was “Dose-dependent effect” in each case. In addition, the inhibition entry in the assay on HT-29 [2], in the assay with HT-29 [5], in the assay with HT-29 [6] and in the assay with HT-29 [10] was “Active” each time. For the same compound, the “Ratio IC50” value in the assay on HT-29 [4] was 40000. This compound also registered an IC50 in the assay with HT-29 [7] of 500 nM. Further, the Activity result in the assay with Rattus norvegicus [9] and with Rattus norvegicus [12] was “Dose-dependent effect” throughout. Also, in the assay with HT-29 [13], testing at 10 µM gave an inhibition of 80.3%.
